Laboratory results from ChEMBL document CHEMBL1128088, “Synthesis and activity of cereulide, a cyclic dodecadepsipeptide ionophore as emetic toxin from Bacillus cereus” (1995).

Key:
HEp-2 = assay: Effect on vacuole response in the HEp-2 cells; format: functional, Homo sapiens
Suncus murinus [1] = assay: Effect on latency at dose 16 ug/Kg administered ip; format: functional
Suncus murinus [2] = assay: Effect on latency at dose 16 ug/Kg administered po; format: functional
Suncus murinus [3] = assay: Effect on latency at dose 32 ug/Kg administered ip; format: functional
Suncus murinus [4] = assay: Effect on latency at dose 32 ug/Kg administered po; format: functional
Suncus murinus [5] = assay: Effect on latency at dose 4 ug/Kg administered ip; format: functional
Suncus murinus [6] = assay: Effect on latency at dose 8 ug/Kg administered ip; format: functional
Suncus murinus [7] = assay: Effect on number of suncus vomited at dose 16 ug/Kg administered ip (out of 5); format: functional
Suncus murinus [8] = assay: Effect on number of suncus vomited at dose 2 ug/Kg administered ip (out of 3); format: functional
Suncus murinus [9] = assay: Effect on number of suncus vomited at dose 32 ug/Kg administered ip (out of 5); format: functional
Suncus murinus [10] = assay: Effect on number of suncus vomited at dose 4 ug/Kg administered ip (out of 5); format: functional
Suncus murinus [11] = assay: Effect on number of suncus vomited at dose 4 ug/Kg administered po (out of 5); format: functional
Suncus murinus [12] = assay: Effect on number of suncus vomited at dose 8 ug/Kg administered ip (out of 5); format: functional
Suncus murinus [13] = assay: Effect on number of suncus vomited at dose 8 ug/Kg administered po (out of 5); format: functional
Suncus murinus [14] = assay: Effect on number of vomiting episodes at dose 16 ug/Kg administered ip; format: functional
Suncus murinus [15] = assay: Effect on number of vomiting episodes at dose 16 ug/Kg administered po; format: functional
Suncus murinus [16] = assay: Effect on number of vomiting episodes at dose 32 ug/Kg administered ip; format: functional
Suncus murinus [17] = assay: Effect on number of vomiting episodes at dose 32 ug/Kg administered po; format: functional
Suncus murinus [18] = assay: Effect on number of vomiting episodes at dose 4 ug/Kg administered ip; format: functional
Suncus murinus [19] = assay: Effect on number of vomiting episodes at dose 8 ug/Kg administered ip; format: functional
Suncus murinus [20] = assay: Effect on number of vomiting episodes at dose 8 ug/Kg administered po; format: functional
Suncus murinus [21] = assay: Effect on latency at dose 8 ug/Kg administered po; format: functional
Suncus murinus [22] = assay: Effect on number of suncus vomited at dose 16 ug/Kg administered po (out of 5); format: functional
Suncus murinus [23] = assay: Effect on number of suncus vomited at dose 32 ug/Kg administered po (out of 5); format: functional
Suncus murinus [24] = assay: Effect on number of suncus vomited at dose 8 ug/Kg administered ip; format: functional

Row | SMILES | Vacuole response (HEp-2) | Latency (Suncus murinus [1]) | Latency (Suncus murinus [2]) | Latency (Suncus murinus [4]) | Latency (Suncus murinus [6]) | No. of suncus vomited (Suncus murinus [7]) | No. of suncus vomited (Suncus murinus [10]) | No. of suncus vomited (Suncus murinus [13]) | No. of vomiting episodes (Suncus murinus [14]) | No. of vomiting episodes (Suncus murinus [15]) | No. of vomiting episodes (Suncus murinus [17]) | No. of vomiting episodes (Suncus murinus [19]) | further results
1 | CC(=O)OC[C@@H](C)NC(=O)[C@@H](CC(C)C)OC(=O)[C@@H](NC(=O)[C@@H](OC(=O)[C@@H](C)NC(=O)[C@@H](CC(C)C)OC(=O)[C@@H](NC(=O)[C@@H](OC(=O)[C@@H](C)NC(=O)[C@@H](CC(C)C)OC(=O)[C@@H](NC(=O)[C@@H](OC(C)=O)C(C)C)C(C)C)C(C)C)C(C)C)C(C)C)C(C)C | >20000 ng/mL |  |  |  |  |  |  |  |  |  |  |  | 
2 | CC(C)C[C@@H](OC(=O)[C@@H](NC(=O)[C@@H](O)C(C)C)C(C)C)C(=O)N[C@H](C)C(=O)O[C@H](C(=O)N[C@H](C(=O)O[C@H](CC(C)C)C(=O)N[C@H](C)C(=O)O[C@H](C(=O)N[C@H](C(=O)O[C@H](CC(C)C)C(=O)N[C@H](C)C(=O)O)C(C)C)C(C)C)C(C)C)C(C)C | 12000 ng/mL |  |  |  |  |  |  |  |  |  |  |  | 
3 | CC(C)C[C@@H]1OC(=O)[C@H](C(C)C)NC(=O)[C@@H](C(C)C)OC(=O)[C@@H](C)NC(=O)[C@H](CC(C)C)OC(=O)[C@H](C(C)C)NC(=O)[C@@H](C(C)C)OC(=O)[C@@H](C)NC(=O)[C@H](CC(C)C)OC(=O)[C@H](C(C)C)NC(=O)[C@@H](C(C)C)OC(=O)[C@@H](C)NC1=O (stereo in doubt; form 1) | 5 ng/mL | 5.3 min | 6.3 min | 4.4 min | 5.7 min | 3 | 1 | 1 | 7.3 | 5.3 | 7 | 6.8 | Latency (Suncus murinus [3]): 5.9 min; Latency (Suncus murinus [5]): 15 min; No. of suncus vomited (Suncus murinus [8]): 0; No. of suncus vomited (Suncus murinus [9]): 5; No. of suncus vomited (Suncus murinus [11]): 0; No. of suncus vomited (Suncus murinus [12]): 2; No. of vomiting episodes (Suncus murinus [16]): 8.4; No. of vomiting episodes (Suncus murinus [18]): 4; No. of vomiting episodes (Suncus murinus [20]): 3
4 | CC(C)C[C@@H]1OC(=O)[C@H](C(C)C)NC(=O)[C@@H](C(C)C)OC(=O)[C@@H](C)NC(=O)[C@H](CC(C)C)OC(=O)[C@H](C(C)C)NC(=O)[C@@H](C(C)C)OC(=O)[C@@H](C)NC(=O)[C@H](CC(C)C)OC(=O)[C@H](C(C)C)NC(=O)[C@@H](C(C)C)OC(=O)[C@@H](C)NC1=O (stereo in doubt; form 2) | 3 ng/mL | 6 min | 8.3 min | 8.2 min | 7 min | 5 | 0 | 0 | 10.3 | 6.3 | 7.6 | 5 | Latency (Suncus murinus [21]): 6 min; No. of suncus vomited (Suncus murinus [22]): 3; No. of suncus vomited (Suncus murinus [23]): 5; No. of suncus vomited (Suncus murinus [24]): 1
